{
  "source": "patent US20040096455A1",
  "about": "“Transdermal vaccine delivery device having coated microprotrusions” (priority 2002, published 2004)",
  "key": {"[1]": {"biological_target": "T1, ovalbumin (Gallus gallus, UniProt P01012)", "T1 sequence (P01012 1-386)": "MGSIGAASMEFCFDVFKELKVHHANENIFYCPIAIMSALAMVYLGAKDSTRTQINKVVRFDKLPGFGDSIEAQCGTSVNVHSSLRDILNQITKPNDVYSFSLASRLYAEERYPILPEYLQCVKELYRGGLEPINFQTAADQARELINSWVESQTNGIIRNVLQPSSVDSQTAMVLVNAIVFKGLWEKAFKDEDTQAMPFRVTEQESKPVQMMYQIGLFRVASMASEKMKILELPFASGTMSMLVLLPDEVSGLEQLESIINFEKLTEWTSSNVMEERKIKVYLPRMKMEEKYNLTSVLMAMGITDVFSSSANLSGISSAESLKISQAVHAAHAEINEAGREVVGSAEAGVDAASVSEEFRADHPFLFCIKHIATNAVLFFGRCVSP", "test": "Solubilization of 0.5 wt % ovalbumin solution by surfactants", "format": "physicochemical", "source_text": "Other surfactants and concentrations were test against a solution 0.5 wt % ovalbumin."}, "[2]": {"test_system": "monovalent \"split-varion\" influenza vaccine (A/Panama/2007/99, H3N2)", "format": "physicochemical, influenza virus"}, "[3]": {"details": "0.5 wt % ovalbumin, Surfactant Concentration 0.0085 M"}, "[4]": {"details": "0.5 wt % ovalbumin, Surfactant Concentration 0.017 M"}, "[5]": {"details": "0.5 wt % ovalbumin, Surfactant Concentration 0.035 M"}, "[6]": {"details": "0.5 wt % ovalbumin, Surfactant Concentration 0.052 M"}, "[7]": {"details": "0.5 wt % ovalbumin, Surfactant Concentration 0.069 M"}},
  "note": "Read-outs that look alike come from different tables or passages of the source.",
  "data": [
    {"smiles": "CCCCCCCCCCCC[N+](C)(C)C.[Br-]", "note": "[Dodecyltrimethylammonium Br]", "values": [
      {"measurement": "complete solubilization of ovalbumin solution", "setting": "[1]; [3]", "value": "−"},
      {"measurement": "complete solubilization of ovalbumin solution", "setting": "[1]; [4]", "value": "−"},
      {"measurement": "complete solubilization of ovalbumin solution", "setting": "[1]; [5]", "value": "−"},
      {"measurement": "complete solubilization of ovalbumin solution", "setting": "[1]; [6]", "value": "−"},
      {"measurement": "complete solubilization of ovalbumin solution", "setting": "[1]; [7]", "value": "−"}
    ]},
    {"smiles": "CCCCCCCCCCCC(=O)[O-].[Na+]", "note": "[Sodium laurate]", "values": [
      {"measurement": "complete solubilization of ovalbumin solution", "setting": "[1]; [3]", "value": "−"},
      {"measurement": "complete solubilization of ovalbumin solution", "setting": "[1]; [4]", "value": "−"},
      {"measurement": "complete solubilization of ovalbumin solution", "setting": "[1]; [5]", "value": "+"},
      {"measurement": "complete solubilization of ovalbumin solution", "setting": "[1]; [6]", "value": "+"},
      {"measurement": "complete solubilization of ovalbumin solution", "setting": "[1]; [7]", "value": "+"}
    ]},
    {"smiles": "CCCCCCCCCCCCCCCCCCOS(=O)(=O)[O-].[Na+]", "note": "[Sodium octadecylsulfate]", "values": [
      {"measurement": "complete solubilization of ovalbumin solution", "setting": "[1]", "value": "−"}
    ]},
    {"smiles": "CCCCCCCCOS(=O)(=O)[O-].[Na+]", "note": "[Sodium octylsulfate]", "values": [
      {"measurement": "complete solubilization of ovalbumin solution", "setting": "[1]", "value": "−"}
    ]},
    {"smiles": "CCCCCCCCCCCCCCOS(=O)(=O)[O-].[Na+]", "note": "[Sodium tetradecylsulfate]", "values": [
      {"measurement": "complete solubilization of ovalbumin solution", "setting": "[1]", "value": "−"}
    ]},
    {"smiles": "CCCCCCCCCC[N+](C)(C)CCCS(=O)(=O)[O-]", "note": "[Zwittergent 3-10]", "values": [
      {"measurement": "Turbidity @ 340 nanometers (200 μg/ml)", "setting": "[2]", "value": 0.120}
    ]},
    {"smiles": "CCCCCCCCCCCC[N+](C)(C)CCCS(=O)(=O)[O-]", "note": "[Zwittergent 3-12]", "values": [
      {"measurement": "Turbidity @ 340 nanometers (200 μg/ml)", "setting": "[2]", "value": 0.087}
    ]},
    {"smiles": "CCCCCCCCCCCCCC[N+](C)(C)CCCS(=O)(=O)[O-]", "note": "[Zwittergent 3-14]", "values": [
      {"measurement": "Turbidity @ 340 nanometers (200 μg/ml)", "setting": "[2]", "value": 0.070}
    ]}
  ]
}
